# Reference: patent US20250346643A1, “TROPOMYOSIN KINASE RECEPTOR (TRK) LIGANDS AS THERAPEUTICS TO SUPPORT LIVER REGENERATION” (Vanderbilt University, priority 2024, published 2025)
# What was measured:
# [1] = Storage stability of solubilized recombinant NTF3 at -80 C; type: physicochemical; conditions: solubilized in 0.1% BSA/PBS, stored at -80 C
# Protocol: Treatment with recombinant NTF3. Four months old mice were injected via tail vein for 4 consecutive days with recombinant NTF3 (STEMCELL technology, Vancouver, Canada; cat. 78074, lots 1000070683, 1000077434) diluted in sterile 0.9% saline (0.9% NaCl) or vehicle only. Mice were weighed daily and recombinant NTF3 given at 20 ng/g body weight or 100 ng/g body weight, respectively. Lyophilized NTF3 was solubilized in 0.1% BSA/PBS (bovine serum albumin, Sigma-Aldrich, St. Louis, MO; A3059) and stored at −80° C. until use.
# Human HepG2 and mouse AML12 cells were grown in 6-well plates. Cells were treated with NTF3 (20 ng/ml) purchased from STEMCELL technologies, Vancouver, Canada (cat. 78074), R&D Systems, Minneapolis, MN (267-N3), Gibco, Waltham, MA (PHC7036) and/or Loxo-195 (5-10 nM) (Selleckchem, Houston, TX; S8636) in complete growth media without L-glutamine for 2 hours. Lyophilized NTF3 was solubilized with sterile filtered PBS supplemented with 0.1% BSA, aliquoted and stored at −80° C. until use. […] Protein concentration of supernatants were determined by Direct Detect Spectrophotometer (MilliporeSigma, Burlington, MA). […]
# Immunoblotting. […] Protein concentration of supernatants was determined by Direct Detect Spectrophotometer (MilliporeSigma, Burlington, MA). […] The protein concentration of supernatants was determined by a Direct Detect® spectrophotometer (MilliporeSigma, Burlington, MA). […]
# CCND1 = experiment: Western blot of CCND1 in AML12 cell lysates; type: cell-based, mouse; conditions: AML12 (FIG. 9I-J)
# Protocol: Human HepG2 and mouse AML12 cells were grown in 6-well plates. Cells were treated with NTF3 (20 ng/ml) purchased from STEMCELL technologies, Vancouver, Canada (cat. 78074), R&D Systems, Minneapolis, MN (267-N3), Gibco, Waltham, MA (PHC7036) and/or Loxo-195 (5-10 nM) (Selleckchem, Houston, TX; S8636) in complete growth media without L-glutamine for 2 hours. Lyophilized NTF3 was solubilized with sterile filtered PBS supplemented with 0.1% BSA, aliquoted and stored at −80° C. until use. […] HepG2 and AML12 cells were collected on ice in PBS, centrifuged for 10 sec […] cell pellet homogenized in RIPA buffer containing inhibitors (Roche, Basel, Switzerland; complete Mini proteinase inhibitor, 1×HALT phosphatase inhibitors, Thermo Scientific, Waltham, MA; cat. 78428). Cell lysates were sonicated and centrifuged for 10 min at 18,800×g. Protein concentration of supernatants were determined by Direct Detect Spectrophotometer (MilliporeSigma, Burlington, MA).
# For immunoblot analysis, 30-50 μg of protein diluted in LSD sample buffer (Invitrogen, Waltham, MA) were analyzed per SDS-PAGE (NuPAGE™, Invitrogen, Waltham, MA) using MOPS buffer or MES buffer (Invitrogen, Waltham, MA). […] Semi-quantitative band densitometry was performed using ImageJ software (version 1.53).
# HepG2 cells = experiment: Cell proliferation assay (CellTiter-Glo) in HepG2 cells; type: cell-based, human; conditions: NTF3 20 ng/ml, HepG2 (FIG. 8G-H)
# Protocol: Cell lines. Human HepG2 (ATCC HB-8065) were maintained in MEM media with 10% FBS and the mouse hepatocyte cell line AML12 (ATCC, Manassas, VA; CRL-2254) in DMEM/F12 media supplemented with dexamethasone (40 ng/ml) and Insulin-Transferrin-Selenium (Gibco, Waltham, MA; 41400045), containing 10% FBS and 1% penicillin and streptomycin. JS1 (RRID: CVCL_C7PL), LX2 (RRID: CVCL_5792, MilliporeSigma, Burlington, MA; SCC064) and TWNT4 (RRID: CVCL_W296) cells were cultured in DMEM supplemented with 10% FBS. 293T cells (ATCC, Manassas, VA; CRL-3216) were cultured in DMEM supplemented with 10% FBS.
# Cell proliferation assays. Primary mouse hepatocytes, HepG2 or AML 12 cells were grown in opaque-walled 96-well plates. NTF3 (final concentration 20 ng/ml) (STEMCELL Technologies, Vancouver, Canada; cat. 78074) and/or Loxo-195 (final concentration 5 nM) (Selleckchem, Houston, TX; S8636) were added into complete growth media without L-glutamine. Primary mouse hepatocytes were also grown in serum-free William's E media without supplements. Cells were analyzed by CellTiter-Glo® (Promega G7570, Madison, WI) which detects the number of viable cells on day 0 to day 5 by on detection systems GloMax® (Promega) or Bioteck Synergy H1 (Agilent, Santa Clara, CA). Mouse recombinant HGF (Abcam, Cambridge, UK; ab281797) was added to cell culture media at a final concentration 5 ng/ml. […]
substance,measurement,setting,value
"NTF3: neurotrophin-3, recombinant protein; HSC-derived hepatocyte mitogen, ligand of TRKA, TRKB, TRKC",storage time at which activity and protein concentration declined significantly,[1],approximately 3 months
same,"CCND1 amounts, NTF3 from three different vendors",CCND1,CCND1 amounts increased
same,cell proliferation,HepG2 cells,greatly stimulated cell proliferation
